The record followed here is PubChem BioAssay (NCI).

Holding throughout (test): inhibition of tumour cell growth, NCI panel, 48 h
In assay [1] the test system is UACC-257 melanoma.
Assay [2] concerns NCI-H522 lung.
The test system of assay [3] is U251 CNS.
Assay [4] deals with EKVX NSCLC.
The subject of assay [5] is NCI/ADR-RES ovarian.
Assay [6] concerns HOP-92 NSCLC.
In assay [7] the test system is UO-31 renal.
For assay [8], the system named is K-562 leukemia.
Assay [9] concerns MDA-MB-435.
Assay [10] has as its system MOLT-4 leukemia.
Assay [11] concerns HCC-2998 colon.
Assay [12] relates to SF-539 CNS.
The test system of assay [13] is NCI-H23 lung.
The subject of assay [14] is SK-OV-3 ovarian.
In assay [15] the test system is OVCAR-5 ovarian.
Assay [16] concerns ACHN renal.

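Cells were grown in 96-well plates and exposed to each compound for 48 hours at five concentrations; endpoints were interpolated linearly between bracketing concentrations, or set to the highest concentration if not reached. TGI denotes the concentration required for complete inhibition of growth.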 Where a SMILES comes first, the peptide text is derived from it. The star is where a group is joined. Boc = CC(C)(C)OC(=O)*

With `O=C1C=CC(=O)c2c(O)c(NCCO)c(Cl)c(O)c21`, the TGI in [1] was 2.78 µM; in assay [2], more than 10 µM; in assay [3] it was more than 10 µM; in assay [4], more than 10 µM; in [5] it was more than 10 µM; in assay [6], more than 10 µM. The TGI in [7] is more than 10 µM; in assay [8], 8.23 µM; in [9], 4.23 µM; in [10] it was more than 10 µM; in [11] it was more than 7.21 µM; in assay [12] it was 5.73 µM. Besides, the TGI was 5.59 µM in assay [13], more than 10 µM in assay [14], more than 5.87 µM in [15] and more than 10 µM in assay [16].
`O=C(CCc1ccc(O)c(O)c1)NCCc1ccccc1`: the TGI in assay [1] was more than 100 µM; in [2] it was 43.4 µM; in [3], more than 100 µM; in assay [4] it was more than 100 µM; in assay [5], more than 100 µM; in assay [6], more than 100 µM. Moreover, the TGI in assay [7] is more than 74.5 µM; in [8], 49.6 µM; in assay [9], 29.3 µM; in assay [10], more than 100 µM; in assay [11] it was more than 100 µM; in assay [12], more than 89.9 µM. The TGI in [13], in assay [14], in assay [15] and in [16] was more than 100 µM each time.
On to `Clc1cc2nc(C3CCCCO3)[nH]c2cc1Cl` (stereo not drawn), for which the TGI is more than 100 µM in assay [1]; 18.5 µM in [2]; more than 96.7 µM in assay [3]; more than 100 µM in assay [4]; more than 52.1 µM in assay [5]; more than 100 µM in [6]. Moreover, the TGI in [7] is more than 53.3 µM; in assay [8] it was more than 100 µM; in [9], more than 44.6 µM; in [10] it was more than 100 µM; in assay [11] it was 96.9 µM; in [12], 97 µM. In addition, the TGI is more than 59.8 µM in assay [13], more than 100 µM in [14], more than 100 µM in [15] and more than 100 µM in [16].
For the compound `CCOc1cc(/C=N/c2nc3cc4sc(/N=C/c5ccc(O)c(OCC)c5)nc4cc3s2)ccc1O`, the TGI in assay [1], in assay [2], in [3], in assay [4], in assay [5] and in [6] was more than 100 µM in each case. Moreover, the TGI in assay [7] was more than 100 µM; in assay [8] it was more than 100 µM; in assay [9] it was more than 100 µM; in assay [10], more than 100 µM; in assay [11], more than 100 µM; in assay [12], 62.3 µM. In addition, the TGI in assay [13], in assay [14], in [15] and in assay [16] was more than 100 µM throughout.
`COc1ccc2nc3cc([N+](=O)[O-])ccc3c(NNc3ccc([N+](=O)[O-])cc3)c2c1`: the TGI in [1] was 16 µM; in [2] it was more than 100 µM; in assay [3], more than 93.7 µM; in assay [4], more than 100 µM; in assay [5] it was more than 100 µM; in assay [6] it was 67.7 µM. For the same compound, the TGI in assay [7] is more than 100 µM; in [8], more than 100 µM; in [9], more than 100 µM; in assay [10] it was more than 100 µM; in assay [11], 69.4 µM; in assay [12], more than 100 µM. The TGI in assay [13], in assay [14], in assay [15] and in [16] was more than 100 µM throughout.
Regarding `O=C(CC(Cc1ccccc1)c1ccc(Oc2ccccc2)cc1)Nc1cccc(Cl)c1` (stereo not drawn), the TGI is 76.2 µM in [1]; 26.5 µM in assay [2]; more than 100 µM in assay [3]; more than 100 µM in assay [4]; 38.3 µM in [5]; 5.51 µM in [6]. Besides, the TGI is more than 100 µM in assay [7]; more than 100 µM in assay [8]; more than 100 µM in assay [9]; 39.3 µM in assay [10]; 31.8 µM in assay [11]; more than 100 µM in [12]. For the same compound, the TGI in [13] is more than 100 µM; in [14], more than 100 µM; in assay [15], more than 100 µM; in [16] it was 27.1 µM.
Turning to `CC(NC(=O)C1CCCN1C(=O)CNC(=O)OC(C)(C)C)C(=O)O` (stereo not drawn) (Boc-Gly-Pro-Ala-OH; configuration not given here), the TGI in assay [1], in assay [2], in assay [3], in assay [4], in assay [5] and in [6] was more than 100 µM each time. The TGI in [7], in assay [8], in [9], in [10], in assay [11] and in assay [12] was more than 100 µM in each case. Moreover, the TGI in assay [13], in assay [14], in assay [15] and in [16] was more than 100 µM in each case.
On to `CC(C)C1CC(CO)(CNc2nc(N)nc(Cl)c2/C=N\O)C1` (stereo not drawn), for which the TGI is 11.8 µM in assay [1]; 22.4 µM in [2]; 39.6 µM in [3]; 11.7 µM in assay [4]; 27.5 µM in assay [5]; 35.2 µM in [6]. Moreover, the TGI in assay [7] is 36.3 µM; in [8] it was more than 100 µM; in assay [9], 28.9 µM; in assay [10], 63 µM; in assay [11], 17.8 µM; in assay [12], 49.3 µM. Further, the TGI in assay [13] amounted to 24.3 µM; in [14], 30.2 µM; in [15] it was 85.2 µM; in assay [16], 35 µM.
